“Also recorded” adds a separate entry of the source.
Columns and labels:
[1] = system: PGE2 and PGD2 levels in muscle tissue; experiment: LC-MS/MS of prostaglandins in muscle tissue lysates; assay type: in vivo, mouse; conditions: aged mice, daily i.p., 1 month
Method: All prostaglandin standards-PGF2a; PGE2; PGD2; 15-keto PGE2; 13,14-dihydro 15-keto PGE2; PGE2-D4; and PGF2α-D9—were purchased from Cayman Chemical. For the PGE2-D4 internal standard, positions 3 and 4 were labeled with a total of four deuterium atoms. For PGF2α-D9, positions 17, 18, 19 and 20 were labeled with a total of nine deuterium atoms.
Analyte stock solutions (5 mg/mL) were prepared in DMSO. These stock solutions were serially diluted with acetonitrile/water (1:1 v/v) to obtain a series of standard working solutions, which were used to generate the calibration curve. […]
Solid tissues were harvested, weighed, and snap-frozen with liquid nitrogen. […] The dry residue was reconstituted in 100 μL acetonitrile/10 mM ammonium acetate (2:8 v/v) and analyzed by LC-MS/MS.
Since many prostaglandins are positional isomers with identical masses and have similar fragmentation patterns, chromatographic separation is critical. Two SRM transitions-one quantifier and one qualifier-were carefully selected for each analyte. […]
Quantitative analysis was done using LabSolutions LCMS (Shimadzu). An internal standard method was used for quantification: PGE2-D4 was used as an internal standard for quantification of PGE2, 15-keto PGE2, and 13, 14-dihydro 15-keto PGE2. […]

[2] = system: 15-PGDH overexpressing young muscles; assay type: in vivo, mouse
Method: Middle aged (18-20 mo.) and aged (>24 mo.) mice C57BL/6 were obtained the US National Institute on Aging (NIA) for aged muscle studies, and young (2-4 mo.) wild-type C57BL/6 mice from Jackson Laboratory. […] Time and distance to exhaustion was performed as previously described (4) for SW-treated mice and their controls.
Overexpression of Hpgd (15-PGDH) was achieved by integrating AAV9 under CMV promoter and with eGFP under IRES (AA9-CMV-m-HPGD-IRES-eGFP) (Vector Biolabs). The control virus was AAV9-tMCK-eGFP-WPRE.
The peak isometric torque (N·mm) of the ankle plantarflexors was assessed as previously described (21, 22). Briefly, the foot of anesthetized mice was placed on a footplate attached to a servomotor (model 300C-LR; Aurora Scientific). Two Pt-Ir electrode needles (Aurora Scientific) were inserted percutaneously and subcutaneously over the tibial nerve, just posterior/posterior-medial to the knee. The ankle joint was secured at a 90° angle. The peak isometric torque was achieved by varying the current delivered to the tibial nerve at a frequency of 200 Hz and a 0.1—ms square wave pulse. We performed three tetanic measurements on each muscle, with 1 min recovery between each measurement. Data were collected with the Aurora Scientific Dynamic Muscle Data Acquisition and Analysis Software.

[3] = system: aged muscle transcriptome; experiment: RNA sequencing of vehicle and SW treated aged muscles; assay type: in vivo, mouse; conditions: SW 1 month
Text: For RNA-seq, RNA was isolated from muscle lysates using Trizol reagent (Thermoscientific) and purified using Qiagen RNAEasy kit from. Libraries were constructed from RNA with the TruSEQ RNA Library Preparation Kit v2 (Illumina) and sequenced to 30-40×10^6×75-bp reads per sample on a NextSeq 550 from the Stanford Functional Genomics Facility.
For the RNA-Seq analysis, the sequences were aligned against the Mus musculus genome (mm9) using STAR (16). RSEM was used for calling transcripts and calculating transcripts per million (TPM) values as well as total counts (17). A counts matrix containing the number of counts for each gene and each sample was obtained. This matrix was analyzed by DESeq2 to calculate statistical analysis of significance of genes between samples (18). […] Heatmaps were generated on normalized counts and plotted on Z-score across rows using Seaborn data visualization library in python. The data reported in this paper have been deposited in the Gene Expression Omnibus (GEO) database GSE149924.

mdx4cv/mTRKO(G2) mice = experiment: Plantar flexion tetanic force in Duchenne muscular dystrophy mouse model; assay type: in vivo; conditions: 8 month old mice, 4 weeks of treatment
Method: For ABT-263 treatments, 20 month old C57/B16 mice were treated with vehicle (ethanol:polyethylene glycol 400:Phosal 50 PG) or ABT-263 (in ethanol:polyethylene glycol 400:Phosal 50 PG) by oral gavage for 2 cycles of 1 week with a 2 week rest period between cycles as described previously (1). For the Duchenne muscular dystrophy (DMD) mouse model, we used 8-10 month old mdx4cv/mTRKO(G2) generated as previously described (2).
Time and distance to exhaustion was performed as previously described (4) for SW-treated mice and their controls (FIG. 3A).
The peak isometric torque (N·mm) of the ankle plantarflexors was assessed as previously described (8,9). Briefly, the foot of anesthetized mice was placed on a footplate attached to a servomotor (model 300C-LR; Aurora Scientific). Two Pt-Ir electrode needles (Aurora Scientific) […] subcutaneously over the tibial nerve, just posterior/posterior-medial to the knee. The ankle joint was secured at a 90° angle. The peak isometric torque was achieved by varying the current delivered to the tibial nerve at a frequency of 200 Hz and a 0.1-ms square wave pulse. We performed three tetanic measurements on each muscle, with 1 min recovery between each measurement. Data were collected with the Aurora Scientific Dynamic Muscle Data Acquisition and Analysis Software.

[4] = 15-PGDH overexpressing young muscles, daily i.p.

## CCCC[S+]([O-])c1sc2nc(-c3cccs3)cc(-c3ccccc3)c2c1N (centres unmarked) [SW033291, 2-(butylsulfinyl)-4-phenyl-6-(thiophen-2-yl)thieno[2,3-b]pyridin-3-amine]
[1]
  PGD2 levels in muscle: increase
[1]; listed as SW
  PGE2 levels in muscle: elevated; also recorded: increase
[2]; [4]
  mass of TA muscle: increased
  strength (plantar flexion tetanic force): increased
[2]; young mice
  muscle atrophy induced by overexpression of 15-PGDH: rescued
[3]
  Hdac4 expression: diminished
  components of mitochondria complexes I, II, IV and V of the electron transport chain: markedly increased
  members of ubiquitin signaling pathways: downregulated
  mitochondrial pathways (KEGG/GO enrichment of upregulated genes): strong enrichment
[3]; listed as SW
  expression of TGF-beta pathway genes (Mstn, Tgfb2, Acvr2a, Smad3): decreased; also recorded: markedly reduced
mdx4cv/mTRKO(G2) mice
  increase in muscle strength compared to vehicle treated controls: 22%
